1 compound from ChEMBL document CHEMBL1156260, “Through the "gatekeeper door": exploiting the active kinase conformation” (J Med Chem, 2010) can be followed below.

This assay addresses Serine/threonine-protein kinase PLK1 (Homo sapiens, UniProt P53350).

Serine/threonine-protein kinase PLK1, sequence (P53350 whole entry): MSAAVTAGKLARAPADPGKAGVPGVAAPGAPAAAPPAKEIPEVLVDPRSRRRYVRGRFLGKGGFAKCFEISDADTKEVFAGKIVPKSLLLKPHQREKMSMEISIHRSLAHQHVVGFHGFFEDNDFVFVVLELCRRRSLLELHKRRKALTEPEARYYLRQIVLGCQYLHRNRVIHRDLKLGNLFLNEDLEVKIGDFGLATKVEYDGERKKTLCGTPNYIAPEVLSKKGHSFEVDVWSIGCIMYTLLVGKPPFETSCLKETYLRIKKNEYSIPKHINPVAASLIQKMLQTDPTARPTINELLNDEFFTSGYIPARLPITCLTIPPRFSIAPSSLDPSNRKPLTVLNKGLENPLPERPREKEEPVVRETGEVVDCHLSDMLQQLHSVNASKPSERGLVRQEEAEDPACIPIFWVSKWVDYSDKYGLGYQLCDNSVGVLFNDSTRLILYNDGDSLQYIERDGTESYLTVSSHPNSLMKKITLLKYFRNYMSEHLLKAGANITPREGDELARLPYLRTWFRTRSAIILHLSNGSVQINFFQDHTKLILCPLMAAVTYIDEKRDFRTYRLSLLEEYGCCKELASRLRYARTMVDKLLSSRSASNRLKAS

Consider `Cc1cc(NC(=O)Nc2ncc(CCNc3cc(Nc4nnc[nH]4)ncn3)s2)c(C(F)(F)F)o1`, for which half-maximal inhibition (IC50) required 0.72 µM.
